Measurements from patent publication US12529022B2, “Human organ-on-chip models for predictive screening” (The Trustees of Columbia University in the City of New York, priority 2018, dated 2026).

Tests used:
[1] = test system: non-metastatic (RD-ES cell line derived) Ewing sarcoma OOC; test: Non-metastatic Ewing sarcoma OOC, luciferase luminescence (cancer cell number and viability); assay type: cell-based, human; conditions: 12 μM
Description: Drug treatment experiments recapitulating the patient treatment regimens and the patient plasma concentration of 12 μM of linsitinib were then carried out on the nonmetastatic and metastatic TE-ES and OS models. FIGS. 42 and 43 are graphs illustrating non-metastatic (RD-ES cell line derived, FIG. 42) and metastatic (SK-N-MC cell line derived, FIG. 43) Ewing sarcoma OOCs were exposed to linsitinib (12 μM) according to the drug treatment regimen. Luminescence as a function of cancer cell number and viability was measured (mean±s.e.m., n=6 for day 3, and n=3 for day 7 and 21, biologically independent per group). Significance was determined by unpaired two-tailed Student's t test of treatment group at specific day with respective control; *P<0.05; **P<0.01; ***P<0.001. Tissue engineered bone tumor models: Using an established protocol, expanded MSCs were seeded into the bone matrix scaffolds (4 mm×4 mm×1 mm) at a concentration of 10^6 cells per scaffold, using 40 μL of medium. The cells were allowed to attach for 2 hours, and then supplemented with additional mesenchymal stem cell medium overnight. The following day, osteogenic differentiation of the seeded cells was initiated by addition of low glucose DMEM supplemented with 1 μM dexamethasone (Sigma-Aldrich), 10 mM β-glycerophosphate (SigmaAldrich), and 50 μM L-ascorbic acid-2-phosphate (Sigma Aldrich). Each scaffold was incubated in 4 mL of osteogenic media, with media changes three times a week, for 3 weeks, allowing for the MSCs to differentiate into functional, maturing osteoblasts. Two weeks following the initiation of osteogenic differentiation, aggregates of tumor cells were prepared as described previously. Briefly, 0.3×10^6 cells were used to form ES aggregates and 0.5×10^6 cells were used to form OS aggregates. After 1 week of culture, the primary bone tumor aggregates were infused into the differentiated osteoblastseeded bone scaffolds (3 aggregates per scaffold, placed apart of each other). Tumor models were established for each of the two ES cell types (non-metastatic RD-ES, metastatic SK-NMC) and three OS cell types (non-metastatic U2-OS and Saos2, metastatic KHOS/NP). TE-RD-ES were cultured in the RPMI medium, TE-U-2 OS in DMEM, TE-Saos2 in McCoy's 5A, and TESK-N-MC and TE-KHOS/NP both in EMEM. Scaffolds without aggregates were used as healthy bone controls for each tumor model (termed TE-bone) and were cultured in the respective cancer cell line medium. […] Cell viability: Cancer cell viability was measured for GFP-Luciferase labelled cancer cells using ONE-Glo luciferase substrate that was prepared according to manufacturer's protocol (Promega). […] Cardiac cell viability was assessed through the Pierce LDH Cytotoxicity Assay Kit (Thermo Fisher Scientific). […]

[2] = patients with other types of cancers; cited from earlier work
human cardiac OOC = test: Cardiac OOC calcium transients, isoproterenol response after linsitinib exposure; assay type: cell-based; conditions: tissues exposed to linsitinib, then 1 μM isoproterenol
Description: Isoproterenol response: Samples were loaded with Fluo-4, AM, cell permeant (Invitrogen) in RPMI Medium 1630 supplemented with B27 for 30 min at 37° C. […] Videos were analysed in MATLAB using a custom script that calculated the temporal changes in calcium fluorescence intensity. Each frame was normalized to a baseline background region chosen by the user to give baseline-corrected changes in minimum and maximum fluorescence values for each frame. The temporal changes in fluorescence intensity were presented in calcium transient traces from which the measurements were obtained. The calcium transient timing was determined as the peak-to-peak values of two successive beats as defined by the peak maxima.
Calcium transient traces were also analyzed 10 minutes after exposure to 1 μM isoproterenol hydrochloride, diluted in RPMI Medium 1630 supplemented with B27™.

## C[C@]1(O)C[C@@H](c2nc(-c3ccc4ccc(-c5ccccc5)nc4c3)c3c(N)nccn32)C1 [linsitinib, Linsitinib (OSI-906)]
[1]; 21-day treatment cycle
  course of treated cancer cell population: stopped expanding after the treatment
[1]; day 3
  luminescence (cancer cell number and viability) vs control: significant drug response
[1]; day 7
  luminescence (cancer cell number and viability) vs control: significant responses
[1]; day 21
  luminescence (cancer cell number and viability) vs control: significant responses
[2]
  cardiotoxicity in clinical trials: proarrhythmic events, like tachycardia and atrial fibrillation
Human cardiac OOC
  inotropic response to isoproterenol: inotropic responses were not observed
  proarrhythmic events in calcium transients: proarrhthymic events
